Measured values taken from ChEMBL document CHEMBL4699475, “Campafungins: Inhibitors of Candida albicans and Cryptococcus neoformans Hyphal Growth” (2020).
Calls of active or inactive are those of the source. The calls are words filed in the database; no cut-off is given here.

How the values were obtained:
Staphylococcus aureus = assay: Antimicrobial activity against Staphylococcus aureus ATCC 43300 assessed as reduction in microbial growth after 24 hrs by resazurin staining based liquid serial dilution assay; format: functional
Candida albicans [1] = assay: Antimicrobial activity against Candida albicans ATCC 10231 assessed as reduction in microbial growth after 48 hrs by resazurin staining based liquid serial dilution assay; format: functional
Candida tropicalis = assay: Antimicrobial activity against Candida tropicalis ATCC 750 assessed as reduction in microbial growth after 48 hrs by resazurin staining based liquid serial dilution assay; format: functional
Nakaseomyces glabratus = assay: Antimicrobial activity against Candida glabrata ATCC 2001 assessed as reduction in microbial growth after 48 hrs by resazurin staining based liquid serial dilution assay; format: functional
Cryptococcus neoformans [2] = assay: Antimicrobial activity against Cryptococcus neoformans H99 assessed as reduction in microbial growth after 72 hrs by resazurin staining based liquid serial dilution assay; format: functional
Aspergillus fumigatus [3] = assay: Antimicrobial activity against Aspergillus fumigatus FSGC A1240 assessed as reduction in microbial growth after 48 hrs by resazurin staining based liquid serial dilution assay; format: functional
Cryptococcus neoformans [4] = assay: Antimicrobial activity against Cryptococcus neoformans H99 harboring cac1 deletion mutant assessed as reduction in microbial growth after 72 hrs by resazurin staining based liquid serial dilution assay; format: functional, organism-based
Cryptococcus neoformans [5] = assay: Antimicrobial activity against Cryptococcus neoformans H99 harboring gpa1 deletion mutant assessed as reduction in microbial growth after 72 hrs by resazurin staining based liquid serial dilution assay; format: functional, organism-based
Cryptococcus neoformans [6] = assay: Antimicrobial activity against Cryptococcus neoformans H99 harboring pka1 deletion mutant assessed as reduction in microbial growth after 72 hrs by resazurin staining based liquid serial dilution assay; format: functional, organism-based
Cryptococcus neoformans [7] = assay: Antimicrobial activity against Cryptococcus neoformans H99 harboring pkr1 deletion mutant assessed as reduction in microbial growth after 72 hrs by resazurin staining based liquid serial dilution assay; format: functional, organism-based
Cryptococcus neoformans [8] = assay: Antimicrobial activity against Cryptococcus neoformans H99 harboring pde1 deletion mutant assessed as reduction in microbial growth after 72 hrs by resazurin staining based liquid serial dilution assay; format: functional, organism-based
[9] = system: Schizosaccharomyces pombe; assay: Antimicrobial activity against Schizosaccharomyces pombe strain SAK1 harboring MJ-1682 efflux mutant assessed as reduction in microbial growth by resazurin staining based CLSI method; format: functional
[10] = system: Schizosaccharomyces pombe; assay: Antimicrobial activity against Schizosaccharomyces pombe strain SAK1 assessed as reduction in microbial growth by resazurin staining based CLSI method; format: functional
Cryptococcus neoformans [11] = assay: Effect on cAMP signaling mediated virulence associated encapsulation phenotype in Cryptococcus neoformans H99 incubated for 72 hrs by India Ink staining based analysis; format: functional
Cryptococcus neoformans [12] = assay: Effect on cAMP signaling mediated virulence associated melanin production phenotype in Cryptococcus neoformans H99 incubated for 72 hrs in presence of L-DOPA; format: functional
Aspergillus fumigatus [13] = assay: Antimicrobial activity against Aspergillus fumigatus AF293 assessed as reduction in microbial growth after 48 hrs by resazurin staining based liquid serial dilution assay; format: functional
Aspergillus fumigatus [14] = assay: Inhibition of hyphal extension in Aspergillus fumigatus AF293 at 10 ug/ml measured after 48 hrs by microscopic analysis; format: functional, organism-based; details: dose 10.0 µg/ml
Candida albicans [15] = assay: Inhibition of hyphal extension in Candida albicans SC3514 at 10 ug/ml measured after 24 to 48 hrs by microscopic analysis; format: functional, organism-based; details: dose 10.0 µg/ml, time 24-48 hrs
Candida albicans [16] = assay: Inhibition of hyphal extension in Candida albicans SC3514 at 10 ug/ml measured at >48 hrs by microscopic analysis; format: functional, organism-based; details: dose 10.0 µg/ml, time hrs >48

MIC (Staphylococcus aureus) | MIC (Candida albicans [1]) | MIC (Candida tropicalis) | MIC (Nakaseomyces glabratus) | MIC (Cryptococcus neoformans [2]) | MIC (Aspergillus fumigatus [3]) | Compound | Activity (Cryptococcus neoformans [4]) | Activity (Cryptococcus neoformans [5]) | Activity (Cryptococcus neoformans [6]) | Activity (Cryptococcus neoformans [7]) | Activity (Cryptococcus neoformans [8]) | MIC [9] | MIC [10] | Activity (Cryptococcus neoformans [11]) | Activity (Cryptococcus neoformans [12]) | MIC (Aspergillus fumigatus [13]) | inhibition (Aspergillus fumigatus [14]) | inhibition (Candida albicans [15]) | inhibition (Candida albicans [16])
32 µg/mL | 128 µg/mL | 64 µg/mL | > 128 µg/mL | 4 µg/mL | 64 µg/mL | C/C=C(\C)[C@@]1(O)[C@@H](/C=C/C=C/C=C/C=C/C(=O)O)[C@@H]2CC=C(C)C[C@H]2[C@@H]2O[C@@H]21 |  |  |  |  |  |  |  |  |  |  |  |  | 
32 µg/mL | 128 µg/mL | 64 µg/mL | > 128 µg/mL | 4 µg/mL | 64 µg/mL | C/C=C(\C)[C@]1(O)C=C[C@@H]2CC(C)=CC[C@H]2[C@]1(O)/C=C/C=C/C=C\C=C\C(=O)O |  |  |  |  |  |  |  |  |  |  |  |  | 
 | 0.36 µg/mL | 0.36 µg/mL | 0.18 µg/mL | 0.36 µg/mL | 0.74 µg/mL | C[C@@H]1[C@H](O)[C@@H](C)/C=C/C=C/C=C/C=C/C=C/C=C/C=C/[C@H](O[C@@H]2O[C@H](C)[C@@H](O)[C@H](N)[C@@H]2O)C[C@@H]2O[C@](O)(C[C@@H](O)C[C@@H](O)[C@H](O)CC[C@@H](O)C[C@@H](O)CC(=O)O[C@H]1C)C[C@H](O)[C@H]2C(=O)O [AMPHOTERICIN B] |  |  |  |  |  |  |  |  |  |  |  |  | 
32 µg/mL | > 128 µg/mL | 64 µg/mL | > 128 µg/mL | 8 µg/mL | 64 µg/mL | C/C=C(\C)[C@]1(O)C=C[C@@H]2CC(C)=CC[C@H]2[C@]1(O)/C=C/C=C/C=C\C=C\C=C\C(=O)O |  |  |  |  |  |  |  |  |  |  |  |  | 

Compound | MIC (Staphylococcus aureus) | MIC (Candida albicans [1]) | MIC (Candida tropicalis) | MIC (Nakaseomyces glabratus) | MIC (Cryptococcus neoformans [2]) | MIC (Aspergillus fumigatus [3]) | Activity (Cryptococcus neoformans [4]) | Activity (Cryptococcus neoformans [5]) | Activity (Cryptococcus neoformans [6]) | Activity (Cryptococcus neoformans [7]) | Activity (Cryptococcus neoformans [8]) | MIC [9] | MIC [10] | Activity (Cryptococcus neoformans [11]) | Activity (Cryptococcus neoformans [12]) | MIC (Aspergillus fumigatus [13]) | inhibition (Aspergillus fumigatus [14]) | inhibition (Candida albicans [15]) | inhibition (Candida albicans [16])
C\C=C(/C=C/C=C/C=C/C=C/C(=O)O)[C@]1(O)[C@H]2CC=C(C)C[C@@H]2C=C[C@@]1(C)O | 64 µg/mL | 128 µg/mL | 64 µg/mL | > 128 µg/mL | 8 µg/mL | 64 µg/mL | Active | Active | Active | Active | Active | 2 µg/mL | 10 µg/mL | inactive | inactive | 38 µg/mL | Active | Active | inactive
